Assay: xn = mol fraction of the nth substance listed

CC=CC(=O)OCC + CCO
viscosity [mPa·s], 101 kPa
Settings	x1 = 0.0991	x1 = 0.1985	x1 = 0.2994	x1 = 0.3961	x1 = 0.5006	x1 = 0.6	x1 = 0.6968	x1 = 0.7816	x1 = 0.8996
293.15 K	1.026	0.929	0.9257	0.9219	0.878	0.8293	0.8016	0.8351	0.8122
298.15 K	0.9334	0.8523	0.8465	0.8404	0.8061	0.7663	0.7402	0.7648	0.7535
303.15 K	0.8498	0.7812	0.7751	0.7739	0.7411	0.7061	0.6855	0.7052	0.7
313.15 K	0.7166	0.6615	0.6607	0.6588	0.6372	0.6091	0.5958	0.6134	0.6108
323.15 K	0.6156	0.5747	0.5702	0.5686	0.5537	0.5363	0.5284	0.5414	0.5401

OCCOCCOCCOCCOCCOCCO + O
viscosity [mPa·s], 100 kPa
Settings	293.15 K	298.15 K	303.15 K	308.15 K	313.15 K	318.15 K	323.15 K
x2 = 0.086	84.1	63.85	49.38	39.16	31.47	25.71	21.3
x2 = 0.154	83.43	63.21	48.95	38.71	31.12	25.38	21.01
x2 = 0.191	79.58	61.16	47.41	37.44	30.09	24.56	20.43
x2 = 0.222	81.84	62.01	47.77	37.78	30.44	24.83	20.66

O=C1CCCN1 + OCCCO
308.15 K, 101 kPa
Settings	viscosity [mPa·s]
x1 = 0.1929	22.6
x1 = 0.3918	17.83
x1 = 0.4915	15.95
x1 = 0.5918	14.51
x1 = 0.6929	12.9
x1 = 0.897	10.06

[Cl-].[Cl-].[Cl-].[Cl-].[Sn+4] + O=C(O)CCl
323.15 K, 101 kPa
Settings	viscosity [mPa·s]
x1 = 0.025	3.305
x1 = 0.0506	3.944
x1 = 0.0951	4.193
x1 = 0.0957	4.1
x1 = 0.1491	4.17
x1 = 0.2041	3.921
x1 = 0.2511	2.927
x1 = 0.3456	2.003
x1 = 0.4928	1.41
x1 = 0.6663	0.948
x1 = 0.7708	0.836

O=S=O + CCOCC
298.15 K, 101 kPa
Settings	viscosity [mPa·s]
x1 = 0.0574	0.2303
x1 = 0.0951	0.2353
x1 = 0.1329	0.24
x1 = 0.1607	0.2443

Cc1cc(C)cc(C)c1 + Cc1ccccc1
viscosity [mPa·s]
Settings	100 kPa	101.33 kPa
298.15 K, x2 = 0.5	0.5957	0.5957
298.24 K, x2 = 0.8	0.5709	0.5709
303.16 K, x2 = 0.5	–	0.5616
303.18 K, x2 = 0.8	–	0.5394
307.82 K, x2 = 0.8	–	0.5125
308.22 K, x2 = 0.5	–	0.5315
313.14 K, x2 = 0.5	0.505	0.505
313.26 K, x2 = 0.8	0.4837	0.4837
317.67 K, x2 = 0.8	–	0.4619
318.09 K, x2 = 0.5	–	0.4792
322.66 K, x2 = 0.8	–	0.4389
322.74 K, x2 = 0.5	–	0.4583

[Cl-].[Cl-].[Cl-].[Cl-].[Sn+4] + O=C(O)C(Cl)(Cl)Cl
323.15 K, 101 kPa
Settings	viscosity [mPa·s]
x1 = 0.1911	2.66
x1 = 0.4139	1.448
x1 = 0.667	0.959

CC(C)Cc1ccccc1 + CCCCCCCCCCCC
viscosity [mPa·s], 102 kPa
Settings	x1 = 0.1006	x1 = 0.2004	x1 = 0.2996	x1 = 0.3998	x1 = 0.5	x1 = 0.6001	x1 = 0.6993	x1 = 0.7997	x1 = 0.8998
293.15 K	1.41	1.35	1.28	1.23	1.17	1.13	1.09	1.05	1.03
303.15 K	1.19	1.14	1.09	1.05	1	0.97	0.945	0.915	0.896
313.15 K	1.02	0.984	0.949	0.915	0.88	0.848	0.823	0.798	0.781
323.15 K	0.892	0.861	0.83	0.8	0.773	0.749	0.726	0.706	0.691

O=S=O + CCCCN(CCCC)CCCC
303.15 K, 100 kPa
Settings	viscosity [mPa·s]
x1 = 0.21	1.4
x1 = 0.35	3.2
x1 = 0.45	12.9

From the CheMixHub viscosity set
